Earlier results as cited in article PMC10254170, “Diastereoselective Synthesis of the Borylated D-Galactose Monosaccharide 3-Boronic-3-Deoxy-D-Galactose and Biological Evaluation in Glycosidase Inhibition and in Cancer for Boron Neutron Capture Therapy (BNCT)” (Molecules, 2023).

Tested on: human
Settings: 5 min; cited from earlier work

In the case of c1ccccc1 [benzene], the LCLO is listed as 20,000 ppm.
